Measurements taken from PubChem BioAssay AID1963986 (Molecular Pharmacology Branch, DTP, NCI, 2024).

System: 171881-019-R-J1-PDC tumor spheroid viability
Experiment: Anticancer human tumor 171881-019-R-J1-PDC patient-derived invasive breast carcinoma cell line growth inhibition [PI3K]
Details: spheroids with HUVEC and MSC; for IC50: curve of first compound; for viability, T/C: stronger effect = lower value
How it was run: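 Tumor cells grown as multi-cell spheroids with HUVEC endothelial cells and MSC fibroblast-like stroma were treated with targeted agents combined with inavolisib, alpelisib, duvelisib or copanlisib. Doses fell in half-log steps from near clinical Cmax, else from 10 microM. Viability was measured.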

[1] = second compound 0.00316 µM, first compound 0.0316 µM
[2] = second compound 0.00316 µM, first compound 0.1 µM
[3] = second compound 0.00316 µM, first compound 0.316 µM
[4] = second compound 0.00316 µM, first compound 1 µM
[5] = second compound 0.01 µM, first compound 0.0316 µM
[6] = second compound 0.01 µM, first compound 0.1 µM
[7] = second compound 0.01 µM, first compound 0.316 µM
[8] = second compound 0.01 µM, first compound 1 µM
[9] = second compound 0.0316 µM, first compound 0.0316 µM
[10] = second compound 0.0316 µM, first compound 0.1 µM
[11] = second compound 0.0316 µM, first compound 0.316 µM
[12] = second compound 0.0316 µM, first compound 1 µM
[13] = second compound 0.1 µM, first compound 0.0316 µM
[14] = second compound 0.1 µM, first compound 0.1 µM
[15] = second compound 0.1 µM, first compound 0.316 µM
[16] = second compound 0.1 µM, first compound 1 µM
[17] = second compound 0.316 µM, first compound 0.0316 µM
[18] = second compound 0.316 µM, first compound 0.1 µM
[19] = second compound 0.316 µM, first compound 0.316 µM
[20] = second compound 0.316 µM, first compound 1 µM
[21] = second compound 1 µM, first compound 0.0316 µM
[22] = second compound 1 µM, first compound 0.1 µM
[23] = second compound 1 µM, first compound 0.316 µM
[24] = second compound 1 µM, first compound 1 µM
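Note: spheroids exposed to compound for 7 days before viability read.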
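Throughout, for viability, T/C: 100% = DMSO vehicle-treated spheroids.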

CCN1CCN(Cc2ccc(Nc3ncc(F)c(-c4cc(F)c5nc(C)n(C(C)C)c5c4)n3)nc2)CC1 + CC(Nc1ccc2c(c1)OCCn1cc(N3C(=O)OCC3C(F)F)nc1-2)C(N)=O
IC50 (second compound 0.00316 µM): > 1000 nM | IC50 (second compound 0.01 µM): > 1000 nM | IC50 (second compound 0.0316 µM): > 1000 nM | IC50 (second compound 0.1 µM): < 3.16 nM | IC50 (second compound 0.316 µM): < 3.16 nM | IC50 (second compound 1 µM): < 3.16 nM | viability, T/C (second compound 0.00316 µM, first compound 0.00316 µM): 87% | viability, T/C (second compound 0.00316 µM, first compound 0.01 µM): 95.7% | viability, T/C [1]: 108% | viability, T/C [2]: 106% | viability, T/C [3]: 120% | viability, T/C [4]: 122% | viability, T/C (second compound 0.01 µM, first compound 0.00316 µM): 82.5% | viability, T/C (second compound 0.01 µM, first compound 0.01 µM): 77.5% | viability, T/C [5]: 85.9% | viability, T/C [6]: 84.9% | viability, T/C [7]: 95.7% | viability, T/C [8]: 109% | viability, T/C (second compound 0.0316 µM, first compound 0.00316 µM): 58% | viability, T/C (second compound 0.0316 µM, first compound 0.01 µM): 57.3% | viability, T/C [9]: 63.9% | viability, T/C [10]: 64.5% | viability, T/C [11]: 80.8% | viability, T/C [12]: 80.1% | viability, T/C (second compound 0.1 µM, first compound 0.00316 µM): 40% | viability, T/C (second compound 0.1 µM, first compound 0.01 µM): 38.3% | viability, T/C [13]: 47.2% | viability, T/C [14]: 48.2% | viability, T/C [15]: 63% | viability, T/C [16]: 70.2% | viability, T/C (second compound 0.316 µM, first compound 0.00316 µM): 27.6% | viability, T/C (second compound 0.316 µM, first compound 0.01 µM): 24.9% | viability, T/C [17]: 33.1% | viability, T/C [18]: 39.4% | viability, T/C [19]: 46.4% | viability, T/C [20]: 55.6% | viability, T/C (second compound 1 µM, first compound 0.00316 µM): 23.1% | viability, T/C (second compound 1 µM, first compound 0.01 µM): 20.7% | viability, T/C [21]: 26.6% | viability, T/C [22]: 28.5% | viability, T/C [23]: 36.4% | viability, T/C [24]: 50.1%

CC1(C)CCC(Nc2ncc(C(F)(F)F)c(-c3c[nH]c4c(P(C)(C)=O)c(C#N)ccc34)n2)CN1 (centres undefined) + COc1c(OCCCN2CCOCC2)ccc2c3n(c(=NC(=O)c4cnc(N)nc4)nc12)CCN3
IC50 (second compound 0.00316 µM): 4000 nM | IC50 (second compound 0.01 µM): < 31.6 nM | IC50 (second compound 0.0316 µM): < 31.6 nM | IC50 (second compound 0.1 µM): < 31.6 nM | IC50 (second compound 0.316 µM): < 31.6 nM | IC50 (second compound 1 µM): < 31.6 nM | viability, T/C [1]: 51.9% | viability, T/C [2]: 57.2% | viability, T/C [3]: 60.6% | viability, T/C [4]: 69% | viability, T/C (second compound 0.00316 µM, first compound 3.16 µM): 63.2% | viability, T/C (second compound 0.00316 µM, first compound 10 µM): 9.56% | viability, T/C [5]: 44.6% | viability, T/C [6]: 49.3% | viability, T/C [7]: 50.9% | viability, T/C [8]: 55.3% | viability, T/C (second compound 0.01 µM, first compound 3.16 µM): 45.5% | viability, T/C (second compound 0.01 µM, first compound 10 µM): 3.97% | viability, T/C [9]: 23.4% | viability, T/C [10]: 27.9% | viability, T/C [11]: 27.1% | viability, T/C [12]: 33.2% | viability, T/C (second compound 0.0316 µM, first compound 3.16 µM): 23.2% | viability, T/C (second compound 0.0316 µM, first compound 10 µM): 1.05% | viability, T/C [13]: 11.1% | viability, T/C [14]: 11.1% | viability, T/C [15]: 11.3% | viability, T/C [16]: 12.7% | viability, T/C (second compound 0.1 µM, first compound 3.16 µM): 7.29% | viability, T/C (second compound 0.1 µM, first compound 10 µM): 0.37% | viability, T/C [17]: 2.05% | viability, T/C [18]: 1.65% | viability, T/C [19]: 1.41% | viability, T/C [20]: 1.53% | viability, T/C (second compound 0.316 µM, first compound 3.16 µM): 0.65% | viability, T/C (second compound 0.316 µM, first compound 10 µM): 0.12% | viability, T/C [21]: 1.55% | viability, T/C [22]: 0.66% | viability, T/C [23]: 0.6% | viability, T/C [24]: 0.51% | viability, T/C (second compound 1 µM, first compound 3.16 µM): 1.51% | viability, T/C (second compound 1 µM, first compound 10 µM): 0.25%
